# Values joined by “and” are separate entries in the source; they are usually repeats but may differ in a detail not shown here. Identical values can stand only once. Toxic doses and inconclusive results are not listed.
# Tested on: P388 leukemia ip, CD2F1 mice, survival T/C
# Experiment: NCI In Vivo Anticancer Drug Screen. Data for tumor model P388 Leukemia (intraperitoneal) in CD2F1 (CDF1) mice
# Conditions: endpoint: median survival time, higher = longer survival
# Method in brief: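 Mice carrying the transplanted tumor received test compound or vehicle. Survival was recorded in each group, and the value is the treated-group measurement divided by that of the vehicle-treated control group.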
# [1] = dose: 50.0 mg/kg/injection, schedule: Q01DX009 (ip), vehicle: Klucel (hydroxypropylcellulose) (HPC)
# [2] = dose: 100.0 mg/kg/injection, schedule: Q01DX005 (ip), vehicle: saline with Tween-80
# [3] = dose: 60.0 mg/kg/injection, schedule: Q01DX005 (ip), vehicle: saline with Tween-80
# [4] = dose: 120.0 mg/kg/injection, schedule: Q01DX005 (ip), vehicle: saline with Tween-80
# [5] = dose: 50.0 mg/kg/injection, schedule: Q01DX009 (ip), vehicle: saline with Tween-80
# [6] = dose: 100.0 mg/kg/injection, schedule: Q01DX009 (ip), vehicle: saline with Tween-80
# [7] = dose: 240.0 mg/kg/injection, schedule: Q01DX005 (ip), vehicle: saline with Tween-80
compound,measurement,setting,value
CC1(C)C=Cc2c(ccc3c(=O)c(-c4ccc5c(c4)OCO5)coc23)O1,T/C,"dose: 25.0 mg/kg/injection, schedule: Q04DX002 (ip), vehicle: saline with Tween-80",107 % of control
same,T/C,"dose: 50.0 mg/kg/injection, schedule: Q04DX002 (ip), vehicle: saline with Tween-80",101 % of control
same,T/C,"dose: 100.0 mg/kg/injection, schedule: Q04DX002 (ip), vehicle: saline with Tween-80",99 % of control and 108 % of control
CCOC(CC#CC(=O)N(C)C)OCC,T/C,"dose: 60.0 mg/kg/injection, schedule: Q01DX005 (ip), vehicle: saline",100 % of control
same,T/C,"dose: 120.0 mg/kg/injection, schedule: Q01DX005 (ip), vehicle: saline",107 % of control
same,T/C,"dose: 240.0 mg/kg/injection, schedule: Q01DX005 (ip), vehicle: saline",101 % of control
COC(=O)Nc1cn2ccc(C(Cl)=C(Cl)Cl)cc2n1,T/C,[1],107 % of control and 109 % of control
same,T/C,"dose: 100.0 mg/kg/injection, schedule: Q01DX009 (ip), vehicle: Klucel (hydroxypropylcellulose) (HPC)",117 % of control and 122 % of control
same,T/C,"dose: 200.0 mg/kg/injection, schedule: Q01DX009 (ip), vehicle: Klucel (hydroxypropylcellulose) (HPC)",116 % of control
CCCCCCCCCCC(CCCCCCCCCC)c1ccccc1,T/C,"dose: 75.0 mg/kg/injection, schedule: Q01DX001 (ip), vehicle: saline sonified",91 % of control
same,T/C,"dose: 150.0 mg/kg/injection, schedule: Q01DX001 (ip), vehicle: saline sonified",95 % of control
same,T/C,"dose: 300.0 mg/kg/injection, schedule: Q01DX001 (ip), vehicle: saline sonified",95 % of control
COc1ccc2c(c1)n([O-])c1ccccc1[n+]2=O,T/C,"dose: 25.0 mg/kg/injection, schedule: Q01DX005 (ip), vehicle: saline with Tween-80",122 % of control
same,T/C,[2],157 % of control and 172 % of control
CCOC(=O)c1c(Nc2ccccc2O)oc2ccccc12,T/C,"dose: 100.0 mg/kg/injection, schedule: Q04DX003 (ip), vehicle: Klucel (hydroxypropylcellulose) (HPC)",98 % of control
same,T/C,"dose: 200.0 mg/kg/injection, schedule: Q04DX003 (ip), vehicle: Klucel (hydroxypropylcellulose) (HPC)",92 % of control
same,T/C,"dose: 400.0 mg/kg/injection, schedule: Q04DX003 (ip), vehicle: Klucel (hydroxypropylcellulose) (HPC)",95 % of control
CCc1cccc2c(NCCCCCCCCCCNc3c4ccccc4nc4c(CC)cccc34)c3ccccc3nc12,T/C,"dose: 0.62 mg/kg/injection, schedule: Q## X009 (ip), vehicle: lactic acid",104 % of control
same,T/C,"dose: 1.25 mg/kg/injection, schedule: Q## X009 (ip), vehicle: lactic acid",107 % of control
same,T/C,"dose: 2.5 mg/kg/injection, schedule: Q## X009 (ip), vehicle: lactic acid",113 % of control
C=CCSC(C)=O,T/C,"dose: 30.0 mg/kg/injection, schedule: Q01DX005 (ip), vehicle: saline with Tween-80",98 % of control
same,T/C,[3],100 % of control
same,T/C,[4],99 % of control
CCCCC(CC)C(=O)OCCCNC(=O)C(C)OC(=O)C(CC)CCCC (stereo not drawn),T/C,"dose: 50.0 mg/kg/injection, schedule: Q01DX005 (ip), vehicle: saline with Tween-80",104 % of control
same,T/C,[2],87 % of control
same,T/C,"dose: 200.0 mg/kg/injection, schedule: Q01DX005 (ip), vehicle: saline with Tween-80",104 % of control
CO[C@H]1/C=C/O[C@@]2(C)Oc3c(C)c(O)c4c(O)c(c(/C=N/N5CCN(C)CC5)c(O)c4c3C2=O)NC(=O)/C(C)=C\C=C\[C@H](C)[C@H](O)[C@@H](C)[C@@H](O)[C@@H](C)[C@H](OC(C)=O)[C@@H]1C,T/C,"dose: 25.0 mg/kg/injection, schedule: Q01DX009 (ip), vehicle: other",92 % of control
same,T/C,"dose: 25.0 mg/kg/injection, schedule: Q01DX009 (ip), vehicle: saline with Tween-80",100 % of control
same,T/C,"dose: 25.0 mg/kg/injection, schedule: Q04DX003 (ip), vehicle: distilled water + Tween-80",106 % of control
same,T/C,"dose: 25.0 mg/kg/injection, schedule: Q04DX003 (ip), vehicle: other",99 % of control and 97 % of control
same,T/C,"dose: 50.0 mg/kg/injection, schedule: Q01DX009 (ip), vehicle: other",98 % of control
same,T/C,[5],100 % of control
same,T/C,"dose: 50.0 mg/kg/injection, schedule: Q04DX003 (ip), vehicle: distilled water + Tween-80",105 % of control and 110 % of control
same,T/C,"dose: 50.0 mg/kg/injection, schedule: Q04DX003 (ip), vehicle: other",106 % of control and 109 % of control
same,T/C,"dose: 100.0 mg/kg/injection, schedule: Q01DX009 (ip), vehicle: other",89 % of control
same,T/C,[6],100 % of control
same,T/C,"dose: 100.0 mg/kg/injection, schedule: Q04DX003 (ip), vehicle: distilled water + Tween-80",96 % of control and 97 % of control
same,T/C,"dose: 100.0 mg/kg/injection, schedule: Q04DX003 (ip), vehicle: other",107 % of control and 115 % of control
same,T/C,"dose: 100.0 mg/kg/injection, schedule: Q04DX003 (ip), vehicle: saline sonified",95 % of control
same,T/C,"dose: 200.0 mg/kg/injection, schedule: Q01DX009 (ip), vehicle: other",107 % of control
same,T/C,"dose: 200.0 mg/kg/injection, schedule: Q04DX003 (ip), vehicle: distilled water + Tween-80",106 % of control
same,T/C,"dose: 200.0 mg/kg/injection, schedule: Q04DX003 (ip), vehicle: other",110 % of control
same,T/C,"dose: 200.0 mg/kg/injection, schedule: Q04DX003 (ip), vehicle: saline sonified",104 % of control
same,T/C,"dose: 400.0 mg/kg/injection, schedule: Q04DX003 (ip), vehicle: distilled water + Tween-80",103 % of control
same,T/C,"dose: 400.0 mg/kg/injection, schedule: Q04DX003 (ip), vehicle: saline sonified",109 % of control
COC1CC(N)C(OS(C)(=O)=O)C(C)O1 (stereo not drawn),T/C,"dose: 12.5 mg/kg/injection, schedule: Q04DX003 (ip), vehicle: water",99 % of control
same,T/C,"dose: 25.0 mg/kg/injection, schedule: Q04DX003 (ip), vehicle: water",99 % of control
same,T/C,"dose: 50.0 mg/kg/injection, schedule: Q04DX003 (ip), vehicle: water",114 % of control
same,T/C,"dose: 100.0 mg/kg/injection, schedule: Q04DX003 (ip), vehicle: water",114 % of control
same,T/C,"dose: 200.0 mg/kg/injection, schedule: Q04DX003 (ip), vehicle: water",105 % of control
CC1=C[C@H]2[C@@]3(O)[C@H](C)[C@@H](OC(=O)/C=C\c4ccccc4)[C@]4(OC(=O)/C=C\c5ccccc5)[C@H]([C@@H]3C=C(COC(=O)/C=C\c3ccccc3)C[C@]2(O)C1=O)C4(C)C,T/C,"dose: 0.18 mg/kg/injection, schedule: Q01DX005 (ip), vehicle: saline + alcohol",92 % of control
same,T/C,"dose: 0.35 mg/kg/injection, schedule: Q01DX005 (ip), vehicle: saline + alcohol",95 % of control
same,T/C,"dose: 0.7 mg/kg/injection, schedule: Q01DX005 (ip), vehicle: saline + alcohol",95 % of control
same,T/C,"dose: 1.4 mg/kg/injection, schedule: Q01DX005 (ip), vehicle: saline + alcohol",95 % of control
same,T/C,"dose: 2.8 mg/kg/injection, schedule: Q01DX005 (ip), vehicle: saline + alcohol",102 % of control
C(=C\c1cccs1)/c1csnn1,T/C,[3],101 % of control
same,T/C,[4],102 % of control
same,T/C,[7],101 % of control
C[CH2][Pb]([CH2]C)([CH2]C)[n]1cnc2ccccc21,T/C,"dose: 0.75 mg/kg/injection, schedule: Q01DX009 (ip), vehicle: Klucel (hydroxypropylcellulose) (HPC)",99 % of control
same,T/C,"dose: 1.5 mg/kg/injection, schedule: Q01DX009 (ip), vehicle: Klucel (hydroxypropylcellulose) (HPC)",118 % of control
same,T/C,"dose: 3.0 mg/kg/injection, schedule: Q01DX009 (ip), vehicle: Klucel (hydroxypropylcellulose) (HPC)",118 % of control
same,T/C,"dose: 3.12 mg/kg/injection, schedule: Q04DX003 (ip), vehicle: Klucel (hydroxypropylcellulose) (HPC)",96 % of control
same,T/C,"dose: 6.25 mg/kg/injection, schedule: Q04DX003 (ip), vehicle: Klucel (hydroxypropylcellulose) (HPC)",114 % of control
same,T/C,"dose: 12.5 mg/kg/injection, schedule: Q04DX003 (ip), vehicle: Klucel (hydroxypropylcellulose) (HPC)",92 % of control
COc1ccc2c(c1)CCc1cc(OC)ccc1/[N+]([O-])=[N+]\2[O-],T/C,[3],93 % of control
same,T/C,[4],93 % of control
same,T/C,[7],101 % of control
CCC1(O)CC2CCc3[nH]c4ccccc4c3CCN(C2)C1 (stereo not drawn),T/C,"dose: 5.25 mg/kg/injection, schedule: Q01DX005 (ip), vehicle: Klucel (hydroxypropylcellulose) (HPC)",100 % of control
same,T/C,"dose: 10.5 mg/kg/injection, schedule: Q01DX005 (ip), vehicle: Klucel (hydroxypropylcellulose) (HPC)",100 % of control
same,T/C,"dose: 21.0 mg/kg/injection, schedule: Q01DX005 (ip), vehicle: Klucel (hydroxypropylcellulose) (HPC)",98 % of control
same,T/C,"dose: 42.0 mg/kg/injection, schedule: Q01DX005 (ip), vehicle: Klucel (hydroxypropylcellulose) (HPC)",95 % of control
CC1(O)OC(COc2ccc(Cl)cc2)COC1O (stereo not drawn),T/C,[3],112 % of control
same,T/C,[4],103 % of control
Cn1c2cc(Cl)c(Cl)cc2nc2cc3c(cc21)c(Cl)c(=O)c1ccccc13,T/C,[5],104 % of control
same,T/C,[6],100 % of control
same,T/C,"dose: 200.0 mg/kg/injection, schedule: Q01DX009 (ip), vehicle: saline with Tween-80",98 % of control
CN(C(=S)S(=O)(=O)C12CC3CC(CC(C3)C1)C2)c1ccccc1,T/C,"dose: 12.5 mg/kg/injection, schedule: Q01DX009 (ip), vehicle: Klucel (hydroxypropylcellulose) (HPC)",118 % of control
same,T/C,[1],124 % of control

# — PubChem BioAssay AID330 (DTP/NCI, 2004)
